Source: patent US10408843B2, “Compositions and methods for detecting S-nitrosylation and S-sulfinylation” (The Regents of the University of Michigan, priority 2013, dated 2019)

What was measured:
Recombinant human GAPDH = target: T1, Recombinant human GAPDH (Homo sapiens, UniProt P04406); assay: Labeling of recombinant GAPDH (in-gel fluorescence, LC-MS); format: biochemical
T1 construct: 6His; made in house; host or cells: E. coli BL21
Protocol: FIG. 14. Profiling fluorescein-SO2H reactivity and selectivity on S-nitrosylated GAPDH. Recombinant human GAPDH was resuspended in 6 M urea/PBS, treated with 50 mM iodoacetamide for 30 minutes, and mixed with dimedone, ascorbate, peroxide or NO donor (5 minutes). Fluorescein-SO2H (500 μM) was then added to the GAPDH sample for 45 minutes. S-nitrosylated human GAPDH labeling increases upon incubation with the NO donor MAHMA-NONOate, and decreases following treatment with ascorbate. […] Fluorescein-SO2H labeling is unaffected by pre-incubation with peroxide or dimedone.
FIG. 15. Biotin-SO2H reacts with human GAPDH and forms a thiosulfonate. Recombinant human GADPH was labeled with biotin-SO2H for site-specific analysis of S-nitrosylation by high-resolution mass spectrometry.
Given the efficient and selective conjugation of sulfinic acids and nitrosothiols, recombinant human GAPDH were next purified for targeted analysis of S-sulfinylation with biotin-SO2H. […] Biotin-SO2H-labeled GAPDH protein was digested with trypsin and analyzed by high-resolution mass spectrometry, identifying a biotin-thiosulfonate modified peptide encompassing the GAPDH catalytic cysteine (FIG. 15). […] These studies confirm direct detection of native of S-sulfinylation by sulfinic acid probes for mass spectrometry analysis.
Purified human GAPDH was diluted to 0.2 mg/mL in phosphate buffered saline (pH 7.3), and treated with 20 mM iodoacetamide for 30 minutes. Next, the sample was treated with 100 μM biotin-SO2H. Purified human DJ-1 was diluted to 0.2 mg/mL in PBS, and incubated with 20 mM iodoacetamide to alkylated free thiols. Next, the sample was treated with 2 mM hydrogen peroxide for 20 minutes to promote Cys106 sulfinic acid formation. […] Eluted peptides were analyzed using a Waters Synapt G2-S HDMS time-of-flight mass spectrometer in positive mode. […] MS data was searched using Waters Protein Lynx Global Server v3.0 using the exact mass calculated for the cysteine thiosulfonate modification.

[1] = test system: sulfenic acids in 293T cell lysates; assay: Dimedone-alkyne detection of sulfenic acids in lysates; format: biochemical, human
Protocol: FIG. 12. Sulfenic acids are eliminated by ascorbate reduction or denaturing buffers. Lysates were labeled for 1 hour with 1 mM dimedone-alkyne, and precipitated with chloroform:methanol. The protein fraction was sonicated in PBS and diluted to 1 mg/mL, and incubated with 20 μM TAMRA-azide, 1 mM CuSO4, and 100 μM Tris[(1-benzyl-1H-1,2,3-triazol-4-yl)methyl]amine (TBTA) for 1 hour, boiled in reducing loading buffer, and separated by SDS-PAGE. After transfer and Cy5-streptavidin binding, the gel was visualized using a GE Typhoon fluorescence scanner. […] Pre-treatment with sodium ascorbate (20 mM) for 30 minutes efficiently reduces sulfenic acids. […] Furthermore, ascorbate reduces sulfenic acids, and confirms non-selective enrichment of an additional cysteine oxidative modification by the biotin-switch method.

[2] = HPLC assay of thiosulfonate reduction by TCEP or ascorbate; format: physicochemical
Protocol: FIG. 5A-B. The thiosulfonate product is reduced by TCEP, but not ascorbate. A 0.5 mM solution of the thiosulfonate product was incubated with 2.5 mM TCEP or 2.5 mM sodium ascorbate in phosphate buffer (pH 7.4) in the dark at room temperature. After 5 minutes and 60 minutes, an aliquot injected for HPLC analysis and separated using gradient elution (5% ACN to 95% ACN over 15 minutes).

[3] = Rate constant determination: loss of GSNO absorbance after phenylsulfinic acid addition; format: physicochemical
Protocol: FIG. 6A-B. GSNO is consumed by increasing concentrations of sodium phenylsulfinate. (a) A 2 mM solution of S-nitrosoglutathione (GSNO, Cayman) was treated with increasing concentrations of phenylsulfinic acid, and the absorbance of GSNO was monitored over a period of 90 minutes at 340 nm using a plate reader in varying pH buffers. (b) Calculation of rate constants at differing pH values. At pH 7, the rate becomes more hyperpbolic.
Thiosulfonate formation was further characterized by measuring the loss of S-nitroso-glutathione (GSNO) absorbance after phenylsulfinic acid addition (FIG. 6). At pH 1 and 4, the reaction rate is first order and proceeds at 3×10^−5 M·sec^−1. […]
S-nitrosoglutathione (GSNO, Cayman) and sodium phenylsulfinate (Sigma-Aldrich) were used for rate-determination studies at four pH values: pH 1.0 (0.2 N HCl/KCl buffer), pH 4.0 (0.1 M Sodium acetate/Acetic Acid buffer), pH 7.0 (0.1 M potassium phosphate buffer) and pH 10.0 (0.1 M Sodium bicarbonate/Sodium hydroxide buffer). The purity of S-nitrosoglutathione was calculated as 94±1.3% by absorbance at 334 nm using the molar extinction coefficient of 900 M^−1 cm^−1. Assays were performed using a plate reader (Tecan Infinite F500) monitoring absorbance of 2 mM GSNO at 340 nm over a course of 90 minutes in the presence of varying concentrations of sodium phenylsulfinate. […]

[4] = HPLC cross-reactivity assay of phenylsulfinic acid; format: physicochemical
Protocol: FIG. 3. […] A 10 mM solution of phenylsulfinic acid was allowed to react with a 20 mM solution of iodoacetamide in potassium phosphate buffer pH 7.4 for 5 hours. After 5 hours, the reaction mixture was injected on an HPLC and separated using gradient elution (5% ACN to 95% ACN over 15 minutes). Absence of additional peaks (over 202-798 nm, monitored on a PDA detector) was interpreted as no reaction between the sulfinic acid and iodoacetamide.
A 2 mM solution of phenylsulfinic acid was allowed to stand with 20 mM solutions of N-acetyl-cysteine-methyl ester, benzaldehyde, cystine dimethyl ester, and 5,5′-dithiobis-(2-nitrobenzoic acid) in phosphate buffer pH 7.4 for 5 hours. The reaction mixtures were injected on an HPLC and analyzed using gradient elution (5% ACN to 95% ACN over 15 minutes). Peaks beyond minute 8.6 in (a) are contaminants present in the commercial cysteine sample (Sigma-Aldrich).
Cross-reactivity was determined by allowing components to react for 4 hours. HPLC analysis (every 30 minutes) was used to monitor reactions. Reduction in peak intensity of initial components and the appearance of new peak was termed as a positive reaction. Partial reaction indicates incomplete reaction.

[5] = test system: S-nitrosylated proteins in mammalian cell lysates; assay: Gel-based labeling of endogenous S-nitrosylated proteins in cell lysates; format: biochemical, human; conditions: lysates denatured, alkylated with iodoacetamide; streptavidin detection
Protocol: FIG. 8. Dose-dependent labeling of S-nitrosylated proteins by biotin-SO2H. 293T and PANC1 cells were lysed in 6 M urea/PBS and alkylated with 50 mM iodoacetamide for 30 minutes, followed by incubation with increasing concentrations of biotin-SO2H for 45 minutes.
Next, the reactivity of sulfinic acids with native S-nitrosylated proteins was examined. Biotin and fluorescein N-hydroxysuccinimide (NHS) esters were directly coupled to the biological sulfinic acid metabolite hypotaurine (biotin-SO2H) or the sulfonic acid metabolite taurine (biotin-SO3H). Each probe was incubated with mammalian cell lysates pre-alkylated with excess iodoacetamide (FIG. 1b) in 6 M urea/phosphate buffered saline (PBS), and separated by non-reducing SDS-PAGE for transfer to nitrocellulose and streptavidin detection. […]
Cells and lysates were protected from light and kept on ice throughout the labeling protocol, except when noted. […] Lysate protein concentrations were quantified using the Bio-Rad DC assay, and diluted 3 mg/mL in 6 M urea/PBS. […] For in-gel fluorescence analysis, samples were loaded without boiling using non-reducing SDS-PAGE loading buffer for SDS-PAGE separation. […] In-gel fluorescence and streptavidin blots were analyzed using a GE typhoon scanner at appropriate wavelengths (488/526 for fluorescein and 633/670 for Cy5-Streptavidin).

T1 sequence (P04406 whole entry): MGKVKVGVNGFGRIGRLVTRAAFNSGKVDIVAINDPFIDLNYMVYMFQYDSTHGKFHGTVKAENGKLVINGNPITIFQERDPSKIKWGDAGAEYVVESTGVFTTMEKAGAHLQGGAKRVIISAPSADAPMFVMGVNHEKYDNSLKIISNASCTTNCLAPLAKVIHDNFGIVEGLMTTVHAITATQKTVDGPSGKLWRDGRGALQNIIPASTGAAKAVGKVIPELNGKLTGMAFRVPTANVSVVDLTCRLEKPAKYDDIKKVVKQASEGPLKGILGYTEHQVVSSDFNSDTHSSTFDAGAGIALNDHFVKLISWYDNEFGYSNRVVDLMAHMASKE

O=C(NCCS(=O)O)c1ccc(-c2c3ccc(=O)cc-3oc3cc(O)ccc23)c(C(=O)O)c1 [Fluorescein-SO2H, 2-(6-hydroxy-3-oxo-3H-xanthen-9-yl)-5-((2-sulfinoethyl)carbamoyl)benzoic Acid]
GAPDH labeling after pre-incubation with peroxide or dimedone (Recombinant human GAPDH; 500 μM probe, 45 minutes): unaffected

O=C(NCCS(=O)(=O)O)c1ccc(-c2c3ccc(=O)cc-3oc3cc(O)ccc23)c(C(=O)O)c1 [fluorescein-SO3H, 2-(6-hydroxy-3-oxo-3H-xanthen-9-yl)-5-((2-sulfoethyl)carbamoyl)benzoic Acid]
labeling of GAPDH (Recombinant human GAPDH; 6 M urea/PBS, 50 mM iodoacetamide, probe 45 minutes): does not label GAPDH

C#CCCCC1CC(=O)CC(=O)C1 [Dimedone alkyne, 5-(pent-4-yn-1-yl)cyclohexane-1,3-dione]
detection of sulfenic acids ([1]; 1 mM, 1 hour, PBS): most efficient in PBS
dimedone labeling ([1]; lysate denatured in 6 M urea/PBS): nearly completely eliminated

COC(=O)[C@H](CSS(=O)(=O)c1ccccc1)NC(C)=O [thiosulfonate product, (R)-methyl 2-acetamido-3-((phenylsulfonyl)thio)propanoate]
cleavage of thiosulfonate bond by TCEP ([2]; 0.5 mM with 2.5 mM TCEP, phosphate buffer pH 7.4, room temperature): immediately cleaves
cleavage of thiosulfonate bond by ascorbate ([2]; 0.5 mM with 2.5 mM sodium ascorbate, pH 7.4, 60 minutes): does not

O=S(O)c1ccccc1 [phenylsulfinic acid]
reaction with GSNO ([3]; basic conditions): no reaction occurs
reaction rate of thiosulfonate formation with GSNO ([3]; pH 1 and 4, first order): 3e-05 M/s
reaction with thiols, disulfides, or aldehydes ([4]; 2 mM with 20 mM N-acetyl-cysteine-methyl ester, benzaldehyde, cystine dimethyl ester, DTNB, phosphate buffer pH 7.4, 5 hours): do not react
reaction with iodoacetamide ([4]; 10 mM with 20 mM iodoacetamide, potassium phosphate buffer pH 7.4, 5 hours): no reaction

O=C(CCCC[C@@H]1SC[C@@H]2NC(=O)N[C@@H]21)NCCS(=O)(=O)O [biotin-SO3H, 2-(5-((3aS,4S,6aR)-2-oxohexahydro-1H-thieno[3,4-d]imidazol-4-yl)pentanamido)ethanesulfonic Acid]
labeling of mammalian proteins [5]: unreactive
